Molecules are shown by their SMILES. Where only a bound is given, the exact number is not on record here.

Four compounds from US8765774B2, “3-arylquinazolin-4-one compounds for combating invertebrate pests” (BASF SE, priority 2009, dated 2014) can be followed below.

Common to all, as to type: in vivo
Data set [1] deals with Kanzawa Spider Mite (Tetranychus kanzawai). In words: Kanzawa spider mite, sprayed potted cotton plants (II.7.a). The settings on record: 300 ppm; population reduction assessed after 24, 72 and 120 hours; in comparison with untreated controls. How it is done:
The active compounds were dissolved at the desired concentration in a mixture of 1:1 (vol:vol) acetone:water. The test solutions were prepared at the day of use.
Potted cotton plants colonized with approximately 50 mites of various stages were sprayed after the pest population had been recorded. Population reductions (or increases) after 24, 72 and 120 hours were assessed.

The test system of data set [2] is Diamond Back Moth (Plutella xylostella). The data set is described as follows: Diamond back moth, larvae sprayed with test solution (II.1.a). The settings on record: 500 ppm; third-instar larvae sprayed; mortality recorded 24, 72 and 120 hours after treatment; in comparison with untreated controls. The method, then: The active compound was dissolved at the desired concentration in a mixture of 1:1 (vol:vol) acetone:water. The test solution was prepared at the day of use.
Ten, third-istar larvae are sprayed with 1 ml test solution and introduced to untreated leaves held in a petri dish that was lined with moist filter paper. Mortality was recorded 24, 72 and 120 hours after treatment.

In data set [3] the test system is Cowpea Aphid (Aphis craccivora). The data set is described as follows: Activity against cowpea aphid, sprayed potted cowpea plants (II.3). The settings on record: population reduction assessed after 72 hours, in comparison with untreated controls. The method, then:
The active compounds were formulated in 50:50 (vol:vol) acetone:water. The test solution was prepared at the day of use.
Potted cowpea plants colonized with 100-150 aphids of various stages were sprayed after the pest population had been recorded. Population reduction was assessed after 72 hours.

With `Cc1cc(F)c(-n2cnc3ccccc3c2=O)cc1SCC(F)(F)F` [Compound I-1, 2-(2,2,2-trifluoroethylsufanyl)-4-(4-oxo-quinazolin-3-yl)-5-fluoro-toluol], the mortality in data set [1] came to 100%.
As for `Cc1cc(F)c(-n2cnc3ccccc3c2=O)cc1[S+]([O-])CC(F)(F)F` (stereo not shown) [Compound I-2, 2-(2,2,2-trifluoroethylsufinyl)-4-(4-oxo-quinazolin-3-yl)-5-fluoro-toluol], in data set [1], the mortality is 100%.
In the case of `Cc1cc(F)c(-n2c(C)nc3ccccc3c2=O)cc1SCC(F)(F)F` [Compound I-3, 2-(2,2,2-trifluoroethylsufanyl)-4-(2-methyl-4-oxo-quinazolin-3-yl)-5-fluoro-toluol], the mortality in data set [2] is reported as 100%.
As for `O=c1c2ccccc2ncn1-c1ccnc(SCC(F)(F)F)n1` [Compound I-6, 3-[2-(2,2,2-Trifluoro-ethylsulfanyl)-pyrimidin-4-yl]-3H-quinazolin-4-one], in data set [3], the mortality at 300 ppm is ≥ 50%.
